Experimental data taken from PMC7016291 (Acta Pharmaceutica Sinica. B, 2019).
Where “and” joins values, the source holds several entries; their conditions need not be identical. Equal entries are not always repeated.

Columns and labels:
[1] = Plasma protein binding, dialysis equilibrium method, human
[2] = Plasma protein binding, dialysis equilibrium method, rat
CYP1A2 = target: T1, CYP1A2 (Homo sapiens, UniProt P05177); test: biochemical
T1 sequence (P05177 1-516): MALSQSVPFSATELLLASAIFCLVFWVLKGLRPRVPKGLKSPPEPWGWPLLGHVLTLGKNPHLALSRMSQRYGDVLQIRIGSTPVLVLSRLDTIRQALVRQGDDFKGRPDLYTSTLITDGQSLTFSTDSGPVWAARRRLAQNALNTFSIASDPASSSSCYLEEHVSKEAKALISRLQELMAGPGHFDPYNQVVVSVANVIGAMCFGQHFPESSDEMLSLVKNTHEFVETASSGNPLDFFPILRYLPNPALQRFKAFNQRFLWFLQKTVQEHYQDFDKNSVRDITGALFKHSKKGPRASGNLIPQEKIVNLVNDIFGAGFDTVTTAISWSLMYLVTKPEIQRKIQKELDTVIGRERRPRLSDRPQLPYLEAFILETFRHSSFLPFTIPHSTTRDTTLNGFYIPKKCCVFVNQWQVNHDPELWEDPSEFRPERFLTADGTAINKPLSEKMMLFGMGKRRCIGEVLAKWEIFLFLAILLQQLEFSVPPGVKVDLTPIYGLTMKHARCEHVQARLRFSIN

CYP2C19 = CYP2C19 (Homo sapiens, UniProt P33261); test: Cytochrome P450 inhibition, CYP2C19; format: in vitro ADME
Chain of CYP2C19 (P33261 whole entry): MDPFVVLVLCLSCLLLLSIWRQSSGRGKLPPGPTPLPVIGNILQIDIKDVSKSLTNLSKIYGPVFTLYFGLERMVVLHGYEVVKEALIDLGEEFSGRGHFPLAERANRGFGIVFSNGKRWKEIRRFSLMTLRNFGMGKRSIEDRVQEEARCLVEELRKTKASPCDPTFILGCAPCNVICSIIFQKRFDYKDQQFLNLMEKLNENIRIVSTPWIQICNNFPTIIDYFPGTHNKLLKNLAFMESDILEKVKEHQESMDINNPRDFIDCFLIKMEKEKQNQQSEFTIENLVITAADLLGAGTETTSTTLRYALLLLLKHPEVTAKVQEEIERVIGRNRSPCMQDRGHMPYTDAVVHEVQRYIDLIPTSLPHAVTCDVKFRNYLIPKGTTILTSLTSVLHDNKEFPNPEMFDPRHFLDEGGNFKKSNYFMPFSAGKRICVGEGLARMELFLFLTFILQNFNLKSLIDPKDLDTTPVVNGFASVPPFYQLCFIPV

CYP2D6 = CYP2D6 (Homo sapiens, UniProt P10635); test: biochemical
Chain of CYP2D6 (P10635 whole entry): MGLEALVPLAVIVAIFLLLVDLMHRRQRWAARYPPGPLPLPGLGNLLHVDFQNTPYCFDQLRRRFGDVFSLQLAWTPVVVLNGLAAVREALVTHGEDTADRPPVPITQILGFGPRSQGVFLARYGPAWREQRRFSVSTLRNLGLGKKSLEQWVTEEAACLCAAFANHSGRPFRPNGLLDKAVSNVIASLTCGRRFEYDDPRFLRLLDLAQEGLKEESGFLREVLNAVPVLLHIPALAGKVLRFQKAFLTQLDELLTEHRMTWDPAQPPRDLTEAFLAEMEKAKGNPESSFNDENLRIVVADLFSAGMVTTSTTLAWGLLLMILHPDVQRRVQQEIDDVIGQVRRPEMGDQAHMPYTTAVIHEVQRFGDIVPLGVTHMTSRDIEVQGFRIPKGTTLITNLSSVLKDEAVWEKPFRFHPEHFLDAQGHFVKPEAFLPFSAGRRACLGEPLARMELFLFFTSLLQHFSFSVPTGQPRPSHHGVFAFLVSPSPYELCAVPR

WT HIV-1 RT = WT HIV-1 RT (Human immunodeficiency virus type 1 group M subtype B, UniProt P03366); test: HIV-1 RT inhibition assay; format: biochemical
HIV-2 (ROD) = test: Anti-HIV activity in MT-4 cells; format: cell-based; settings: Human immunodeficiency virus 2, MT4, read-out: EC50 ROD
HIV-1 Y188L = test: Anti-HIV-1 activity against mutant strain Y188L in MT-4 cells; format: cell-based; settings: Human immunodeficiency virus 1, MT4, read-out: EC50 Y188L
[3] = Cytotoxicity in uninfected MT-4 cells; format: cell-based; settings: human, uninfected MT-4 cells
HIV-1 RT RNase H = HIV-1 RT RNase H (Human immunodeficiency virus type 1 group M subtype B, UniProt P03366); test: HIV-1 RT RNase H inhibition; format: biochemical
HIV-1 F227L + V106A = test: Anti-HIV-1 activity against double mutant F227L + V106A in MT-4 cells; format: cell-based; settings: Human immunodeficiency virus 1, MT4, read-out: EC50 F227L + V106A
[4] = In vivo pharmacokinetics in SD rats; settings: rat, plasma
CYP2C9 = CYP2C9 (Homo sapiens, UniProt P11712); test: Cytochrome P450 inhibition, CYP2C9; format: in vitro ADME
Chain of CYP2C9 (P11712 whole entry): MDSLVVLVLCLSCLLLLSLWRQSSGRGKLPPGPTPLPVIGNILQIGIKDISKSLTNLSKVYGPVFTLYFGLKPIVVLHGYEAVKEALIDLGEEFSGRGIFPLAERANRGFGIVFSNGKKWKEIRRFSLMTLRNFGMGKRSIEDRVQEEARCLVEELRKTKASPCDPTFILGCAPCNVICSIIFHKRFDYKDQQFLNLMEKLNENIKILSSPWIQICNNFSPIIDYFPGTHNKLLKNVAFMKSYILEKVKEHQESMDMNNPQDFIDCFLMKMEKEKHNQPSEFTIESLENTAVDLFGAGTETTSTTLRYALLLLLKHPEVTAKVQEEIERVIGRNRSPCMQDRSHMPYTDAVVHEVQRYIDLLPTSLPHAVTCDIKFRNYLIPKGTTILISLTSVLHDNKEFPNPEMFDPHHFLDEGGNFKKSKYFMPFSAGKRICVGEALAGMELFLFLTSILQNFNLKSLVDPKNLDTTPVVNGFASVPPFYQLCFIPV

[5] = Kinetic aqueous solubility; settings: kinetic from dmso stock
HIV-1 E138K = test: Anti-HIV-1 activity against mutant strain E138K in MT-4 cells; format: cell-based; settings: Human immunodeficiency virus 1, MT4, read-out: EC50 E138K
HIV-1 Y181C = test: Anti-HIV-1 activity against mutant strain Y181C in MT-4 cells; format: cell-based; settings: Human immunodeficiency virus 1, MT4, read-out: EC50 Y181C
HIV-1 L100I = test: Anti-HIV-1 activity against mutant strain L100I in MT-4 cells; format: cell-based; settings: Human immunodeficiency virus 1, MT4, read-out: EC50 L100I
CYP3A4M = CYP3A4M (Homo sapiens, UniProt P08684)
Chain of CYP3A4M (P08684 whole entry): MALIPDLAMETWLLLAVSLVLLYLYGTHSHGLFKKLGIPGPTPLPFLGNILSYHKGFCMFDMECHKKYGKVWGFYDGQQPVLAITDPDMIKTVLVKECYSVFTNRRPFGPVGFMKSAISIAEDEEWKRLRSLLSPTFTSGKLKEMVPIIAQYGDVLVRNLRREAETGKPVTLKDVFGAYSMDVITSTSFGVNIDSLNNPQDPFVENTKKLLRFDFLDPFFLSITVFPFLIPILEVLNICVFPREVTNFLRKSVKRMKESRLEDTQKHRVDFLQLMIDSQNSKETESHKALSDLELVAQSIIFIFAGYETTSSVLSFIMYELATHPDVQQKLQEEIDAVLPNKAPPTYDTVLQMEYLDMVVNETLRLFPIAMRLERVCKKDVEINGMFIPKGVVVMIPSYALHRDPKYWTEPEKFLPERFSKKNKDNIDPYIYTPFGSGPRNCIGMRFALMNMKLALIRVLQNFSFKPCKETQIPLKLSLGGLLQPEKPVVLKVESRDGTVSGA

[6] = system: HIV-1 RES056 (K103N/Y181C); test: Anti-HIV-1 activity against double mutant RES056 in MT-4 cells; format: cell-based; settings: Human immunodeficiency virus 1, MT4, read-out: EC50 RES056
HIV-1 K103N = test: Anti-HIV-1 activity against mutant strain K103N in MT-4 cells; format: cell-based; settings: Human immunodeficiency virus 1, MT4, read-out: EC50 K103N

Cc1cc(-c2ccc(C#N)cc2)cc(C)c1Oc1nc(NCCN2CCOCC2)nc(Nc2ccc(C#N)cc2)n1 [Compound 5j, 4ʹ-((4-((4-Cyanophenyl)amino)-6-((2-morpholinoethyl)amino)-1,3,5-triazin-2-yl)-oxy)-3ʹ,5ʹ-dimethyl-[1,1ʹ-biphenyl]-4-carbonitrile]
recovery at 2 μmol/L [1]: 84.9%
recovery at 2 μmol/L [2]: 99.5%
IC50 (CYP1A2): > 50 µM
IC50 (CYP2C19): > 50 µM
IC50 (CYP2D6): > 50 µM
IC50 (WT HIV-1 RT): 176 nM
EC50 (HIV-2 (ROD)): 50 ± 1 nM
EC50 (HIV-1 Y188L): 17 ± 3 nM
CC50 at 4 days [3]: 1080 ± 90 nM
IC50 (HIV-1 RT RNase H): > 1.1 mM
EC50 (HIV-1 F227L + V106A): 17 ± 4 nM
AUC(0-inf) ([4]; iv, 1 mg/kg): 6660 ± 809 ng·h/mL
AUC(0-t) ([4]; iv, 1 mg/kg): 6650 ± 795 ng·h/mL
clearance ([4]; iv, 1 mg/kg): 5.06 ± 0.658 mL/min/kg
half-life ([4]; iv, 1 mg/kg): 44 ± 10.4 min
AUC(0-t) ([4]; po, 20 mg/kg): 322 ± 176 ng·h/mL
Cmax ([4]; po, 20 mg/kg): 43.2 ± 39.8 ng/mL
Tmax ([4]; po, 20 mg/kg): 13.3 ± 9.24 h
bioavailability ([4]; po, 20 mg/kg): 0.485%
IC50 (CYP2C9): 32.9 µM
solubility kinetic ([5]; FaSSIF): 41.6 µg/mL and 76.2 µM
solubility kinetic ([5]; aqueous solution at pH 2.0, pH 2, aqueous buffer): 6.58 µg/mL and 12.1 µM
solubility kinetic ([5]; aqueous solution at pH 7.0, pH 7, aqueous buffer): < 0.853 µg/mL and < 1.56 µM
solubility kinetic ([5]; aqueous solution at pH 7.4, pH 7.4, aqueous buffer): < 0.853 µg/mL and < 1.56 µM
EC50 (HIV-1 E138K): 6.4 ± 0.1 nM
EC50 (HIV-1 Y181C): 13 ± 2 nM
EC50 (HIV-1 L100I): 12 ± 2 nM
IC50 (CYP3A4M): > 50 µM
EC50 [6]: 34 ± 4 nM
EC50 (HIV-1 K103N): 3 ± 1 nM
